Inhibition and CC50 data for four compounds are collected here from ChEMBL document CHEMBL2157907, “Optimization of anti-Trypanosoma cruzi oxadiazoles leads to identification of compounds with efficacy in infected mice” (Bioorg Med Chem, 2012).

In general, inhibition refers to how much of the control response was suppressed.

Data set [1] concerns the target Cruzipain (Trypanosoma cruzi) (UniProt P25779). In words: Inhibition of Trypanosoma cruzi cruzain using Z-Phe-Arg-aminomethylcoumarin as substrate at 100 uM after 10 mins.
Data set [2] is described as follows: Cytotoxicity against BALB/c mouse splenocytes after 24 hrs by [3H]-thymidine incorporation assay. The class given is cell-based, Splenocyte. As to conditions: read-out: LC50. (In general: Dividing cells build labelled thymidine or BrdU into new DNA.)

Cruzipain (Trypanosoma cruzi), sequence (P25779 123-467 limits assumed): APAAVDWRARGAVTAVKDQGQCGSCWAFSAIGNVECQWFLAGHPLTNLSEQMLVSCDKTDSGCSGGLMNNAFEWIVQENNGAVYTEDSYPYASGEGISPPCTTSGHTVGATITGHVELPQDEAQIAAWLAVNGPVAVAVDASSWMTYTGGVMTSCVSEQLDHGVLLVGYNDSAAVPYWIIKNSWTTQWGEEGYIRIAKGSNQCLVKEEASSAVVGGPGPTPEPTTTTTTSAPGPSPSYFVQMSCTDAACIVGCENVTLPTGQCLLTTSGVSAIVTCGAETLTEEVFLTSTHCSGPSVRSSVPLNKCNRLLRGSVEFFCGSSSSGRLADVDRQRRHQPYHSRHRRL

The compound `O=C(N/N=C/c1ccc2c(c1)OCO2)c1nc(-c2ccccc2)no1` displayed an inhibition in data set [1] of 32%. Besides, in data set [2], the CC50 at 24 h is over 100 µg/mL.

`COc1cc(/C=N/NC(=O)c2nc(-c3ccc(F)cc3)no2)ccc1O`: in data set [1], the inhibition turned out to be 63%. Besides, the CC50 at 24 h in data set [2] is over 100 µg/mL.

Take `Cc1ccc(-c2noc(C(=O)N/N=C/c3ccc4c(c3)OCO4)n2)cc1`: the inhibition in data set [1] is 49%. In addition, in data set [2], the CC50 at 24 h was over 100 µg/mL.

For the compound `CN(C)c1ccc(C(=C2C=CC(=[N+](C)C)C=C2)c2ccc(N(C)C)cc2)cc1` [GENTIAN VIOLET], in data set [2], the CC50 at 24 h was determined as 0.11 µg/mL.
